Data set [1] can be described thus: Visual observation of color tone of isolated pigments. The format is physicochemical. The text has this:
The freeze-dried product, the blue pigment (1), the red pigment (2) and the blue pigment (3) obtained in the manner described above were visually observed for color tone.
The blue pigment (1), the red pigment (2) and the blue pigment (3) were visually observed for color tone.

The nature of data set [2]: Visible to ultraviolet absorption spectrum by HPLC with photodiode array detector. The format is physicochemical. As to conditions: for λmax (absorption maximum): in 30% acetonitrile and 0.5% TFA, spectra 650 nm to 250 nm; for color compared with the compound of formula (II) of Patent Document 3: judged from the longer wavelength of the absorption maximum. On the procedure:
The blue pigment (1), the red pigment (2) and the blue pigment (3) were analyzed by HPLC, and their absorption spectra at 650 nm to 250 nm in 30% acetonitrile and 0.5% TFA were measured with a photodiode array detector (see FIGS. 3, 5 and 7).
HPLC was carried out by using a Shodex Asahipak ODP50 column (Showa Denko, 4.6 mm in diameter×25 cm) for the column and isocratic elution of a mobile phase consisting of 30% acetonitrile and 0.5% TFA at a flow rate of 0.6 ml/min. Detection was carried out by measuring the absorption spectra at 650 nm to 250 nm with a photodiode array detector (SPDM10Avp, Shimadzu) and monitoring the chromatogram at A560 nm.

Where [3] appears, read: freeze-dried product from Lavande variety transfected with plasmid pSPB919 (Example 1).
Setting [4] is: pigments from variety WKS82 transfected with plasmid pSPB130 (Example 3).

Consider `O=C(OC1C(O)OC2COC(=O)c3cc(Oc4c(-c5cc(O)c(O)c(O)c5)[o+]c5cc(O)cc6c5c4-c4c(C(=O)O)cc(O)c(O)c4O6)c(O)c(O)c3-c3c(cc(O)c(O)c3O)C(=O)O[C@H]2C1OC(=O)c1cc(O)c(O)c(O)c1)c1cc(O)c(O)c(O)c1` (some centres unmarked) [blue pigment (1)], for which, in data set [1] (setting [3]), the “color tone, visually observed” value is on record as “deep blue”. Further, in data set [1] (setting [4]), the “color tone, visually observed” value was “deep blue”. Also, in data set [2], the “λmax (absorption maximum)” value came to 593 nm and the “color compared with the compound of formula (II) of Patent Document 3” value was “deeper blue color”.

Take `O=C(OC1C(OC(=O)c2cc(O)c(O)c(O)c2)[C@@H]2OC(=O)c3cc(O)c(O)c(O)c3-c3c(cc(Oc4c(-c5cc(O)c(O)c(O)c5)[o+]c5cc(O)cc6c5c4-c4ccc(O)c(O)c4O6)c(O)c3O)C(=O)OCC2O[C@H]1OC(=O)c1cc(O)c(O)c(O)c1)c1cc(O)c(O)c(O)c1` (some centres unmarked) [blue pigment (3)]: the “color tone, visually observed” value in data set [1] (setting [3]) is “deep blue”. Also, in data set [1] (setting [4]), the “color tone, visually observed” value is listed as “deep blue”. For the same compound, in data set [2], the “λmax (absorption maximum)” value worked out at 594 nm and the “color compared with the compound of formula (II) of Patent Document 3” value was “deeper blue color”.

As for `O=c1oc2c(-c3cc(O)c(O)c(O)c3)[o+]c3cc(O)cc4c3c2c2c(c(O)c(O)cc12)O4` [red pigment (2)], the “color tone, visually observed” value in data set [1] (setting [3]) and in data set [1] (setting [4]) was “deep red” throughout. For the same compound, the “λmax (absorption maximum)” value in data set [2] stood at 535 nm.

These data come from patent US9057076B2, “Compounds purified from blue roses” (SUNTORY HOLDINGS LIMITED, priority 2009, dated 2015).
